From US20220340975A1, “METHOD OF TREATMENT AND PRONOSTIC OF ACUTE MYELOID LEUKEMIA” (INSERM (Institute National de la Santé et de la Recherche …, priority 2019, published 2022)

Key:
OCI-AML3 cells [1] = assay: CD11b/CD11c differentiation markers by flow cytometry in OCI-AML3 with or without H1d knockdown and ATRA; type: cell-based; settings: for proportion of the double positive CD11b/CD11c populations / CD11b expression (percentage of CD11b positive cells): ATRA 0.5 μM; for proportion of the double positive CD11b/CD11c populations: 72 h
Description: (A) OCI-AML cells were stably infected by a doxycycline inducible shCtrl or shH1d. Expression of the main histone H1 genes (HIST1H1B, HIST1H1C, HIST1H1D, HIST1H1E, HIST1H1F0 and HIST1HIFx) were analyzed by qPCR in shCtrl and sh #1 without (Dox−) or with 6-days-induction of doxycycline (Dox+). Data represent three independent Dox inductions. Results are normalized on HPRT and expressed in fold change (FC) between Doxycyline treated (Dox+) and non-treated conditions (Dox−). (B) Percentage of CD11b positive cells in shCtrl and sh #1 upon or not (Dox−) 6-days-induction with 2 μg/mL doxycycline (Dox+), without ATRA (wo ATRA) or with 72 hours of ATRA treatment (0.5 μM or 1 μM). (C) Percentage of CD11b-CD11c cells upon 72 h of ATRA-treatment (0.5 μM) in shCtrl and sh #1 conditions. Data represent three independent experiments. Statistical significance was estimated using Mann Whitney test * p<0.05; **p<0.005. (D) Cytological analysis of shCtrl and sh #1 clones upon or not (Dox−) 6-days-induction with doxycycline (Dox+) and after 96 h of ATRA treatment (0.5 μM). (D) May-Grunwald Giemsa coloration of shCtrl and sh #1 clones after 6-days-induction with doxycycline and 96 h hours of ATRA treatment. Black arrows are pointing cytoplasmic azurophilic granules. (E) Expression analysis of two genes associated with ATRA-induced differentiation: CYBB (Cytochrome B-245 Beta Chain) and ITGAM (Integrin Subunit Alpha M) in untreated OCI-AML3 and in ATRA-treated (1 μM) sh #1 without or with doxycycline induction. Data represent three independent experiments. Gene expression was normalized to two housekeeping genes (PGK1 and PPIA). Statistical significance was estimated using T-test (* one-tailed p value <0.05).
The OCI-AML3 cells were grown in MEMα medium supplemented with 20% fetal bovine serum, 100 U/mL penicillin and 100 U/mL streptomycin at 37° C. in humidified atmosphere containing 5% CO2. H1d knockdown was achieved using doxycylin-induced Dharmacon™SMARTvector™ short hairpin RNA (n° V3SH7669-229784413). A non-silencing sh RNA (piSMART VSC10730) was used as a control (shCtrl). Cells containing the SMARTvector™ were selected on puromycin (2 μg/mL) during one day and sorted using ARIAIII cytometer before clonal selection. Three independent cellular clones (sh #1; sh #2; sh #3) were selected. KD of H1d protein was obtained by the addition on doxycycline (2 μg/mL) during 5-7 days. All-trans-retinoic acid (ATRA; Sigma) was resuspended at 10 mM in DMSO and stored at −20° C. Intermediate dilutions were made in culture medium before adding to the cells.
Flow cytometry analyses were performed using a BD-LSRII cytometer and analyzed using BD-DIVA Version 6.1.2 software (BD Biosciences). […]
(§1) To investigate the effect of low H1d expression on AML, we performed H1d knockdown (KD) in OC1-AML3 cells, an AML cell line expressing a NPM1 mutated allele.^26 Efficiency and specificity of our KD were assessed by testing the different mRNA H1 subtypes expression by q-PCR (FIG. 2A) and by measuring H1d protein level after doxycycline induction (data not shown). Consequences of H1d KD on differentiation were evaluated by measuring CD11b and CD11c expression in OCI-AML3 after doxycycline induction. […] As OCI-AML3 can differentiate in vitro in the presence of ATRA, albeit at low efficiency,^27,28 we further analyzed the effect of H1d KD in combination with ATRA treatment. […]

OCI-AML3 cells [2] = assay: Morphological analysis (May-Grunwald Giemsa), cells with cytoplasmic granules; type: cell-based; settings: ATRA 0.5 μM, 96 h
Description: (§2) (A) OCI-AML cells were stably infected by a doxycycline inducible shCtrl or shH1d. Expression of the main histone H1 genes (HIST1H1B, HIST1H1C, HIST1H1D, HIST1H1E, HIST1H1F0 and HIST1HIFx) were analyzed by qPCR in shCtrl and sh #1 without (Dox−) or with 6-days-induction of doxycycline (Dox+). Data represent three independent Dox inductions. Results are normalized on HPRT and expressed in fold change (FC) between Doxycyline treated (Dox+) and non-treated conditions (Dox−). (B) Percentage of CD11b positive cells in shCtrl and sh #1 upon or not (Dox−) 6-days-induction with 2 μg/mL doxycycline (Dox+), without ATRA (wo ATRA) or with 72 hours of ATRA treatment (0.5 μM or 1 μM). […]
Cytospins were prepared by centrifugation in […] PBS at a speed of 500 rpm for 5 min using Superfrost slides. […] 100 cells were counted in duplicate for each condition and examined for cellular morphology using an structured light ApoTome™ microscope (Zeiss, Munich, Germany) equipped with a 63× 1.4 plan ApoChromat objective and an Axiocam™ MRc5 camera.
To investigate the effect of low H1d expression on AML, we performed H1d knockdown (KD) in OC1-AML3 cells, an AML cell line expressing a NPM1 mutated allele.^26 Efficiency and specificity of our KD were assessed by testing the different mRNA H1 subtypes expression by q-PCR (FIG. 2A) and by measuring H1d protein level after doxycycline induction (data not shown). […]

OCI-AML3 cells [3] = assay: qPCR expression of ATRA-induced genes CYBB and ITGAM; type: cell-based; settings: ATRA 1 μM, H1d KD versus no doxycycline induction
Description: as §2, §1

[4] = test system: NPM1mut AML patient-derived xenograft (H3K27me3HIST1high / H3K27me3HIST1low); assay: Patient-derived xenograft (PDX) treated with Ara-C; type: in vivo, mice; settings: for Percentage of leukemic initiating cells (LIC) in BM: 2-round ARAC treated versus untreated
Description: FIG. 4: Detection of leukemic initiating cells after ARAC treatment. (A) H3K27me3HIST1^high and H3K27me3HIST1^low AML secondary transplants were injected in immunocompromised mice (NSG). At disease detection, mice were treated with a first round of ARAC (T1). Blasts in the peripheral blood were followed and a second ARAC treatment (T2) was administrated. (B) Frequency of leukemic initiating cells were analyzed in the BM of the transplanted mice. Percentages are calculated in relation to CD45 and CD33 positive cells detected.
We determined the response to chemotherapy according to H3K27me3 status. This was tested in vivo using patient-derived xenograft (PDX) treated with chemotherapeutic drugs (Ara-C). We used secondary transplantation from 1 H3K27me3HIST1low and 2 H3K27me3HIST1high NPM1mut AML patients. Experimental groups of 6 mice/groups of H3K27me3 HIST1high versus H3K27me3 HIST1low were studied. Mice were treated for one week and progression of leukemia was evaluated by counting hCD45+ cells in blood and after euthanasia in bone marrow. Mouse maintenance and experimental procedures were performed in accordance with protocols approved and compliance with policies approved by the local Committee for Animal Experimentation of Marseille (CAE of Provence number 14), France (2-091009).
We performed a second round of ARAC treatment and analyzed the presence of leukemic cells 4-day post treatment. Numbers of blasts were variable depending on the patient with an accumulation in the BM of leukemic Blast in one of the PDX. […] Thus we analyzed the % of LIC in the 2-round ARAC treated mice in comparison to untreated ones (FIG. 4A).

Compound	proportion of the double positive CD11b/CD11c populations (OCI-AML3 cells [1]; H1d KD cells) [%]	proportion of the double positive CD11b/CD11c populations (OCI-AML3 cells [1]; control (no H1d KD)) [%]	CD11b expression (percentage of CD11b positive cells) (OCI-AML3 cells [1]; 72 hours, with H1d KD (doxycycline-induced)) [%]	CD11b expression (percentage of CD11b positive cells) (OCI-AML3 cells [1]; 72 hours, without H1d KD (control)) [%]	CD11b expression (OCI-AML3 cells [1]; ATRA 1 μM, 72 hours, with H1d KD versus control)	proportion of cells with more than two cytoplasmic granules (OCI-AML3 cells [2]; H1d KD)	proportion of cells with more than two cytoplasmic granules (OCI-AML3 cells [2]; control (no H1d KD)) [%]	CYBB mRNA expression level (OCI-AML3 cells [3])	ITGAM mRNA expression level (OCI-AML3 cells [3])	Percentage of leukemic initiating cells (LIC) in BM ([4]; H3K27me3HIST1high PDX)	Percentage of leukemic initiating cells (LIC) in BM ([4]; H3K27me3HIST1low PDX)	Response to chemotherapy (progression of leukemia, hCD45+ cells) ([4]; first round, one week treatment, all PDX independently of H3K27me3HIST1 status)
CC1=C(/C=C/C(C)=C/C=C/C(C)=C/C(=O)O)C(C)(C)CCC1 [ATRA, all-trans retinoic acid]	42.5	29.8	41	22.6	significant increase	31.5±3.7	9.7	increased the amplitude of ATRA-induced upregulation	increased the amplitude of ATRA-induced upregulation			
Nc1ccn([C@@H]2O[C@H](CO)[C@@H](O)[C@@H]2O)c(=O)n1 [ARAC, cytarabine]										identical before and after treatment	increased	Response to chemotherapy was obtained in all mice
